Measured values as given in patent US20190070208A1, “USE OF TRIACETYL-3-HYDROXYPHENYLADENOSINE IN PREPARING PHARMACEUTICALS FOR TREATMENT OF ATHEROSCLEROSIS” (priority 2016, published 2019).
Where “and” joins values, the source holds several entries; their conditions need not be identical. Equal values may be shown once.

Tests used:
Format in all cases: in vivo
Parameters in all cases: unit not given here
[1] = system: circulating blood inflammatory mononuclear cells (Ly6C^hi); experiment: Circulating blood inflammatory (Ly6Chi) mononuclear cells of high-fat-fed apoE-/- mice (flow cytometry); details: gavage once a day, high-fat diet apoE-/- mice
Procedure: (§1) ApoE-/-mice (C57BL background), 5-7 weeks old, body weight 18-22 g, male, SPF grade; Purchased from Beijing institute of Laboratory Animal Science.
(§2) After 7 days of adaptive feeding, animals were randomly divided into a high-fat feedstuff group (n=7), an MMH007 low-dose group (50 mg/kg, n=7), an IMMH007 medium-dose group (100 mg/kg, n=7), and an IMMH007 high-dose group (200 mg/kg, n=9), and they were administered once a day by gavage. The animals were fed in the Second Department of Animal Experiment Center of the Institute of Materia Medica (IMM) at Chinese Academy of Medical Sciences (CAMS); the feeding condition was SPF grade, the temperature was 21±2 DEG C, relative humidity was 50±5%, lighting cycle was 12/12, and 5 per cage. All groups were given high-fat diet (70% of basal diet plus 20% of lard and 0.2% of cholesterol) and the animals were free to take food and drink. The feedstuff was produced by Beijing HFK Bioscience Co., Ltd. Body weight was recorded once every week during the experiment.
(§3) The animals were fasted for 12 hours and the following cells were extracted:
(§4) Recirculating blood cells: 50 ul of blood was taken by cardiocentesis, placed in 450 ul of heparin anticoagulant, 1 ml of red blood cell lysis buffer was added, lysed for 10 minutes, centrifuged at 1800 r for 3 min, the supernatant was aspirated, and 100 ul of PBS suspension cells were obtained for subsequent use. The mouse was taken blood from the angular vein to be dead and serum was separated and stored at −80 DEG C.
(§5) Antibodies were added to the above blood cells:
(§6) 3 ul of CD90-PE, 3 ul of B220-PE, 3 ul of CD49b-PE, 3 ul of NK1.1-PE, 3 ul of Ly-6G-PE, 6 ul of CD11b-percp, and 3 ul of Ly-6C-FITC, a single positive tube and a blank control tube were provided, they were incubated with smoothie for 30 min, washed 3 times with PBS, and re-selected cells with 400 ul of PBS, filtered, and flow cytometry was carried out. The mononuclear cells were identified as CD11b^hiCD90^loB220^loCD49b^loNK1.1^loLy-6G^lo cells. […]

[2] = system: circulating blood mononuclear cells; experiment: Circulating blood mononuclear cells of high-fat-fed Syrian golden hamsters (whole blood cell analyzer); details: gavage twice a day, high-fat feedstuff hamsters, individual animal values (n=13)
Procedure: […] Syrian golden hamsters (LVG hamsters, introduced from Charles River Laboratories) aged 6-8 weeks, weighing 90-120 g, male, SPF grade and purchased from Beijing Vital River Laboratory Animal Technology Co., Ltd.
After 7 days of adaptive feeding, animals were randomly divided into a normal control group (n=13), a high-fat feedstuff group (n=13), an IMMH007 low-dose group (50 mg/kg, n=13), an IMMH007 medium-dose group (100 mg/kg, n=13), and an IMMH007 high-dose group (200 mg/kg, n=13), and they were administered twice a day by gavage. The animals were fed in the Second Department of Animal Experiment Center of the Institute of Materia Medica (IMM) at Chinese Academy of Medical Sciences (CAMS); the feeding condition was SPF grade, the temperature was 21±2 DEG C, relative humidity was 50±5%, lighting cycle was 12/12, and 5 per cage. The normal group was fed with normal basal feedstuff, and the high-fat feedstuff group was fed with high fat feedstuff (79.8% of basal feedstuff, 20% of lard, and 0.2% of cholesterol), and the animals were free to take food and drink. The feedstuff was produced by Beijing HFK Bioscience Co., Ltd.
The animals were fasted for 12 hours, and about 200 ul of blood was taken from the canthus of each eye, the blood was dissolved in 30ul of EDTA-2K anticoagulant (20g/L, prepared with normal saline), mixed slightly to avoid coagulation, and the whole blood cells were analyzed by a whole blood cell analyzer.

[3] = system: circulating blood mononuclear cells; experiment: Circulating blood mononuclear cells of high-fat-fed apoE-/- mice (flow cytometry); details: gavage once a day, high-fat diet apoE-/- mice
Procedure: as §1, §2, §3, §4, §5, §6

[4] = IMM-H007 50 mg/kg, individual animal values (n=7), 50 mg/kg
[5] = IMM-H007 100 mg/kg, individual animal values (n=7), 100 mg/kg
[6] = IMM-H007 200 mg/kg, individual animal values (n=9), 200 mg/kg

CC(=O)OCC1OC(n2cnc3c(Nc4cccc(O)c4)ncnc32)C(OC(C)=O)C1OC(C)=O (stereo not drawn) [IMM-H007, Triacetyl-3-Hydroxyphenyladenosine]
circulating blood inflammatory mononuclear cells [1, 4]: 0.33 and 0.86 and 0.18 and 0.23 and 0.89 and 0.16 and 0.49 | circulating blood inflammatory mononuclear cells [1, 5]: 0.31 and 0.19 and 0.32 and 0.29 and 0.30 and 0.89 and 0.26 | circulating blood inflammatory mononuclear cells [1, 6]: 0.19 and 0.35 and 0.17 and 0.20 and 0.30 and 0.13 and 0.15 and 0.28 and 0.21 | circulating blood mononuclear cells ([2]; IMM-H007 50 mg/kg, 50 mg/kg): 6.63 and 5.31 and 7.58 and 11.2 and 10.1 and 11 and 10.4 and 9.08 and 6.95 and 8.24 and 9.21 and 6.5 and 8.91 | circulating blood mononuclear cells ([2]; IMM-H007 100 mg/kg, 100 mg/kg): 6.23 and 4.18 and 3.87 and 6.05 and 6.02 and 7.99 and 6.79 and 9.61 and 6.42 and 10.4 and 6.8 and 7.54 and 4.56 | circulating blood mononuclear cells ([2]; IMM-H007 200 mg/kg, 200 mg/kg): 4.42 and 6.33 and 9.94 and 9.51 and 10.3 (2×) and 6.28 and 9.61 and 9.85 and 10.8 and 8.52 and 9.23 and 5.7 | circulating blood mononuclear cells [3, 4]: 0.54 and 0.49 (2×) and 1.23 and 0.66 and 0.63 and 0.26 | circulating blood mononuclear cells [3, 5]: 0.79 and 0.48 and 0.30 and 0.14 and 0.29 and 0.27 and 0.25 | circulating blood mononuclear cells [3, 6]: 0.18 (2×) and 0.69 and 0.28 and 0.24 and 0.27 and 0.23 and 0.21 and 0.10
